# Reference: patent publication US9611252B2 (LifeSci Pharmaceuticals, Inc., priority 2013, dated 2017)
# pIC50: −log10 of the molar value.
# Target: human Plasma Kallikrein (Homo sapiens (Human), UniProt P03952)
# Experiment: In vitro enzyme inhibition of human plasma kallikrein (PFR-AMC cleavage)
# Format: biochemical
# Settings: not given
# Description: The ability of the compounds disclosed herein to inhibit human plasma kallikrein activity was quantified according to the procedures below.
# A 10 mM solution of the test compound was made in DMSO. […] A control tube containing only DMSO is included. 16 μL of each compound test solution was combined with 384 μL of assay buffer (50 mM Tris-HCl pH 7.5, 150 mM NaCl, 0.01% Triton X-100) to yield a “4× test compound buffer stock”.
# These solutions are hereby referred to as 4×hPK and 2×PFR-AMC, respectively.
# 50 μL was removed from this mixture and placed into duplicate wells on a Microfluor 1Black U-bottom microtiter plate (Thermo Scientific). This plate was incubated for 5 minutes at 37° C. To each well, 50 μL of pre-warmed 2×PFR-AMC was added to start the enzymatic reaction. Cleavage of PFR-AMC was monitored in a Biotek Synergy H4 reader set at 37° C. Readings are taken every 43 seconds for 1 hour. […] The IC50 is calculated using the Gen5 (Biotek Instruments).
# The ability of the compounds in Table 3 to inhibit human plasma kallikrein activity was determined.
# Chain of human Plasma Kallikrein (P03952 20-638): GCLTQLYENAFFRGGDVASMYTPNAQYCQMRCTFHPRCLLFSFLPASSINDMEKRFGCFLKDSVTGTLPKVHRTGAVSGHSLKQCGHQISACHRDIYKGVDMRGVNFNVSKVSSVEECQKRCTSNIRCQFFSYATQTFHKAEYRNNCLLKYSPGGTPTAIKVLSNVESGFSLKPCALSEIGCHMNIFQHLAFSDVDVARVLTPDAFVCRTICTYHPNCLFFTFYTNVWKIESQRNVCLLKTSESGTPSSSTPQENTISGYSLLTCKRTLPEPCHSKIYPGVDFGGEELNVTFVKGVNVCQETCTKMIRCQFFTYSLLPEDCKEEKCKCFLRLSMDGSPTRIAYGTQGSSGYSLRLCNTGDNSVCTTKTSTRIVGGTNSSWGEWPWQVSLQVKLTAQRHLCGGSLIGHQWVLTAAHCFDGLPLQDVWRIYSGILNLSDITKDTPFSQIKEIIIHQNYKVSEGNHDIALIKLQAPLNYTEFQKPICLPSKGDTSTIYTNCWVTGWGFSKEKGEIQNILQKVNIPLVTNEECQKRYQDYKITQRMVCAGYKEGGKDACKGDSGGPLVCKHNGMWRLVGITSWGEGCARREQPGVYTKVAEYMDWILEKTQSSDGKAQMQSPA
row,Structure (SMILES),pIC50
1,"Cc1cc(N)ncc1CNC(=O)c1ccnc(Cc2cc(C#N)c3ncc(Cl)cc3c2)c1 [Example 53, N-((6-amino-4-methylpyridin-3-yl)methyl)-2-((3-chloro-8-cyanoquinolin-6-yl)methyl)isonicotinamide]",6.00 to 7.00

# Same assay, conditions: human plasma kallikrein, Pro-Phe-Arg-AMC substrate, 37° C.; read-out: hPK IC50
row,pIC50,Structure (SMILES)
1,> 7.00,"Cc1ccc2ccc(Cc3cc(C(=O)NCc4ccc5c(N)nccc5c4)ccn3)cc2n1 [Example 127, N-((1-aminoisoquinolin-6-yl)methyl)-2-((2-methylquinolin-7-yl)methyl)isonicotinamide]"
2,5.00 to 6.00,"Cc1nc(N)c(C#N)cc1CNC(=O)c1ccnc(Cc2ccc3ncc(Cl)cc3c2)c1 [Example 26, N-((6-amino-5-cyano-2-methylpyridin-3-yl)methyl)-2-((3-chloroquinolin-6-yl)methyl)isonicotinamide]"
3,> 7.00,"Cc1cc2cc(Cc3cc(C(=O)NCc4cc5c(Cl)c[nH]c5cc4F)ccn3)ccc2cn1 [Example 133, N-((3-chloro-6-fluoro-1H-indol-5-yl)methyl)-2-((3-methylisoquinolin-6-yl)methyl)isonicotinamide]"
4,6.00 to 7.00,"Cc1ccc2ccc(Cc3cc(C(=O)NCc4c(C)cc(N)nc4C)ccn3)cc2n1 [Example 129, N-((6-amino-2,4-dimethylpyridin-3-yl)methyl)-2-((2-methylquinolin-7-yl)methyl)isonicotinamide]"
5,6.00 to 7.00,"Cc1nc(N)ccc1CNC(=O)c1ccnc(Cc2cc(C(=O)O)c3ncc(Cl)cc3c2)c1 [Example 96, 6-((4-(((6-amino-2-methylpyridin-3-yl)methyl)carbamoyl)pyridin-2-yl)methyl)-3-chloroquinoline-8-carboxylic acid]"
6,6.00 to 7.00,"Cc1cc(N)nc(C)c1CNC(=O)c1ccnc(Cc2ccc3[nH]cc(Cl)c3c2)c1 [Example 24, N-((6-amino-2,4-dimethylpyridin-3-yl)methyl)-2-((3-chloro-1H-indol-5-yl)methyl)isonicotinamide]"
7,< 5.00,"Cc1nc(N(C)C)ccc1CNC(=O)c1ccnc(Cc2ccc3ncc(Cl)cc3c2)c1 [Example 44, 2-((3-chloroquinolin-6-yl)methyl)-N-((6-(dimethylamino)-2-methylpyridin-3-yl)methyl)isonicotinamide]"
8,> 7.00,"Cc1cc(N)nc(C)c1CNC(=O)c1ccnc(Cc2cnc3cc(F)ccc3c2)c1 [Example 122, N-((6-amino-2,4-dimethylpyridin-3-yl)methyl)-2-((7-fluoroquinolin-3-yl)methyl)isonicotinamide]"
9,> 7.00,"O=C(NCc1cc2c(Cl)c[nH]c2cc1F)c1ccnc(Cc2cnc3cc(F)ccc3c2)c1 [Example 123, N-((3-chloro-6-fluoro-1H-indol-5-yl)methyl)-2-((7-fluoroquinolin-3-yl)methyl)isonicotinamide]"
10,> 7.00,"N#Cc1cnc2ccc(Cc3cc(C(=O)NCc4cc5c(Cl)c[nH]c5cc4F)ccn3)cc2c1 [Example 5, N-((3-chloro-6-fluoro-1H-indol-5-yl)methyl)-2-((3-cyanoquinolin-6-yl)methyl)isonicotinamide]"
11,> 7.00,"O=C(NCc1cc2c(Cl)c[nH]c2cc1F)c1ccnc(Cc2cnc3cc(Cl)ccc3c2)c1 [Example 140, N-((3-chloro-6-fluoro-1H-indol-5-yl)methyl)-2-((7-chloroquinolin-3-yl)methyl)isonicotinamide]"

# Further lines, the compound ahead of its results:
row,Structure (SMILES),pIC50
1,"Cc1nc(N)ccc1CNC(=O)c1ccnc(Cn2cc3cc(Cl)ccc3cc2=O)c1 [Example 86, N-((6-amino-2-methylpyridin-3-yl)methyl)-2-((7-chloro-3-oxoisoquinolin-2(3H)-yl)methyl)isonicotinamide]",6.00 to 7.00
2,"Cc1cc(N)nc(C)c1CNC(=O)c1ccnc(Cc2ccc3nccc(C#N)c3c2)c1 [Example 138, N-((6-amino-2,4-dimethylpyridin-3-yl)methyl)-2-((4-cyanoquinolin-6-yl)methyl)isonicotinamide]",> 7.00
3,"Cc1nc(N)ccc1CNC(=O)c1ccnc(Cc2cnc3ccc(F)cc3c2)c1 [Example 121, N-((6-amino-2-methylpyridin-3-yl)methyl)-2-((6-fluoroquinolin-3-yl)methyl)isonicotinamide]",> 7.00
4,"CC(=O)NCc1ccc2cc(Cc3cc(C(=O)NCc4cc5c(Cl)c[nH]c5cc4F)ccn3)ccc2n1 [Example 9, 2-[2-(acetylamino-methyl)-quinolin-6-ylmethyl]-N-(3-chloro-6-fluoro-1H-indol-5-ylmethyl)-isonicotinamide]",6.00 to 7.00
5,"O=C(NCc1cc2c(Cl)c[nH]c2cc1F)c1ccnc(Cn2cc3cc(Cl)ccc3cc2=O)c1 [Example 88, 2-((7-chloro-3-oxoisoquinolin-2(3H)-yl)methyl)-N-((3-chloro-6-fluoro-1H-indol-5-yl)methyl)isonicotinamide]",6.00 to 7.00
6,"N#Cc1ccnc2ccc(Cc3cc(C(=O)NCc4cc5c(Cl)c[nH]c5cc4F)ccn3)cc12 [Example 137, N-((3-chloro-6-fluoro-1H-indol-5-yl)methyl)-2-((4-cyanoquinolin-6-yl)methyl)isonicotinamide]",6.00 to 7.00
7,"O=C(NCc1cc2c(Cl)c[nH]c2cc1F)c1ccnc(Cc2cnc3ccc(F)cc3c2)c1 [Example 120, N-((3-chloro-6-fluoro-1H-indol-5-yl)methyl)-2-((6-fluoroquinolin-3-yl)methyl)isonicotinamide]",> 7.00
8,"Cc1cc(N)nc(C)c1CNC(=O)c1ccnc(Cc2ccc3nc(CN)ccc3c2)c1 [Example 46, N-((6-amino-2,4-dimethylpyridin-3-yl)methyl)-2-((2-(aminomethyl)quinolin-6-yl)methyl)isonicotinamide]",> 7.00
9,"N#Cc1cnc2ccc(Cc3cc(C(=O)NCc4ccc5c(N)nccc5c4)ccn3)cc2c1 [Example 6, N-((1-aminoisoquinolin-6-yl)methyl)-2-((3-cyanoquinolin-6-yl)methyl)isonicotinamide]",> 7.00
10,"Cc1cc(N)ncc1CNC(=O)c1ccnc(Cc2cc(C(N)=O)c3ncc(Cl)cc3c2)c1 [Example 63, 6-((4-(((6-amino-4-methylpyridin-3-yl)methyl)carbamoyl)pyridin-2-yl)methyl)-3-chloroquinoline-8-carboxamide]",> 7.00
11,"Cc1cc(N)nc(C)c1CNC(=O)c1ccnc(Cc2cnc3ccc(F)cc3c2)c1 [Example 119, N-((6-amino-2,4-dimethylpyridin-3-yl)methyl)-2-((6-fluoroquinolin-3-yl)methyl)isonicotinamide]",> 7.00
12,"O=C(NCc1n[nH]c2ccc(Cl)cc12)c1ccnc(Cc2ccc3ncc(Cl)cc3c2)c1 [Example 37, N-(5-chloro-1H-indazol-3-ylmethyl)-2-(3-chloro-quinolin-6-ylmethyl)-isonicotinamide]",> 7.00
13,"Cc1cc(N)nc(C)c1CNC(=O)c1ccnc(Cc2cc(C(=O)O)c3ncc(Cl)cc3c2)c1 [Example 93, 6-((4-(((6-amino-2,4-dimethylpyridin-3-yl)methyl)carbamoyl)pyridin-2-yl)methyl)-3-chloroquinoline-8-carboxylic acid]",> 7.00
14,"Cc1ccc2ncc(Cc3cc(C(=O)NCc4ccc5c(N)noc5c4)ccn3)cc2c1 [Example 48, N-((3-aminobenzo[d]isoxazol-6-yl)methyl)-2-((6-methylquinolin-3-yl)methyl)isonicotinamide]",< 5.00
15,"O=C(NCc1cc2c(Cl)c[nH]c2cc1F)c1ccnc(Cc2cnc3ccc(Cl)cc3c2)c1 [Example 126, N-((3-chloro-6-fluoro-1H-indol-5-yl)methyl)-2-((6-chloroquinolin-3-yl)methyl)isonicotinamide]",> 7.00
16,"NCc1ccc2cc(Cc3cc(C(=O)NCc4cc5c(Cl)c[nH]c5cc4F)ccn3)ccc2n1 [Example 45, 2-((2-(aminomethyl)quinolin-6-yl)methyl)-N-((3-chloro-6-fluoro-1H-indol-5-yl)methyl)isonicotinamide]",6.00 to 7.00
17,"Cc1ccc2ccc(Cc3cc(C(=O)NCc4cc5c(Cl)c[nH]c5cc4F)ccn3)cc2n1 [Example 128, N-((3-chloro-6-fluoro-1H-indol-5-yl)methyl)-2-((2-methylquinolin-7-yl)methyl)isonicotinamide]",> 7.00
18,"CS(=O)(=O)c1ccc2ncc(Cc3cc(C(=O)NCc4ccc5c(N)nccc5c4)ccn3)cc2c1 [Example 13, N-((1-aminoisoquinolin-6-yl)methyl)-2-((6-(methylsulfonyl)quinolin-3-yl)methyl)isonicotinamide]",6.00 to 7.00
19,"N#Cc1cc(Cc2cc(C(=O)NCc3cc4c(Cl)c[nH]c4cc3F)ccn2)cc2cc(Cl)cnc12 [Example 49, N-((3-chloro-6-fluoro-1H-indol-5-yl)methyl)-2-((3-chloro-8-cyanoquinolin-6-yl)methyl)isonicotinamide]",> 7.00
20,"Nc1nccc2cc(CNC(=O)c3ccnc(Cc4cnc5cc(F)ccc5c4)c3)ccc12 [Example 124, N-((1-aminoisoquinolin-6-yl)methyl)-2-((7-fluoroquinolin-3-yl)methyl)isonicotinamide]",> 7.00
21,"Cc1ccc2cc(Cc3cc(C(=O)NCc4ccc(N)nc4C)ccn3)ccc2n1 [Example 112, N-((6-amino-2-methylpyridin-3-yl)methyl)-2-((2-methylquinolin-6-yl)methyl)isonicotinamide]",> 7.00
22,"COC(=O)c1cc(Cc2cc(C(=O)NCc3ccc(N)nc3C)ccn2)cc2cc(Cl)cnc12 [Example 95, methyl 6-((4-(((6-amino-2-methylpyridin-3-yl)methyl)carbamoyl)pyridin-2-yl)methyl)-3-chloroquinoline-8-carboxylate]",> 7.00
